Results: patent US20150344466A1 (SUMITOMO CHEMICAL COMPANY, LIMITED, priority 2013, published 2015)

What was measured:
Type in all cases: in vivo
[1] = test system: Culex pipiens pallens; assay: Knockdown spray test on adult Culex pipiens pallens (Test Example 4); conditions: topical, 0.25 h, active ingredient 0.1% w/v, 0.5 ml sprayed, within 15 minutes, read-out: knockdown rate of the test insects within 15 minutes
In short: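 Knockdown counts were taken 2, 5 and 15 min after spraying and expressed as percent of the 10 adults tested. For the spray, 0.5 ml of solution was applied by spray gun (0.4 kg/cm^2) from 30 cm above a gauze-covered cup in a test chamber; the cup was taken out right after spraying.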

[2] = test system: Adoxophyes orana fasciata; assay: Spray test on Adoxophyes orana fasciata on apple seedling (Test Example 12); conditions: 168 h, first-instar larvae of Adoxophyes orana fasciata on apple seedling, 20 ml spray, seven days after spraying
Method: On the other hand, 20 ml of the test spray solution was each sprayed on an apple seedling (28 days after sowing, a tree height of about 15 cm) planted in a plastic cup. After the drug solution sprayed on the apple was air-dried, about 30 first-instar larvae of Adoxophyes orana fasciata were released. Seven days after spraying, the number of surviving Adoxophyes orana fasciata on the apple seedling was investigated, and the controlling value was calculated according to the following equation. Controlling value (%)={1−(Cb×Tai)/(Cai×Tb)}×100 In the equation, the symbols represent as follows. Cb: the number of insects in a non-treated section before treatment Cai: the number of insects in a non-treated section on observation Tb: the number of insects in a treated section before treatment Tai: the number of insects in a treated section on observation

[3] = test system: Plutella xylostella; assay: Foliar spray test on Plutella xylostella on cabbage (Test Example 10); conditions: 120 h, third instar larvae of Plutella xylostella on cabbage, 500 ppm spray 20 ml/cup, after five days, read-out: controlling value
In short: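 Cabbage at the third–fourth true-leaf stage sprayed with test solution at 20 ml/cup, dried, then infested with 10 third-instar larvae. Insects counted after five days; controlling value (%) calculated from treated and non-treated counts before treatment and at observation.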

[4] = test system: Culex pipiens pallens; assay: Larvicidal test on Culex pipiens pallens, one day (Test Example 6); conditions: 24 h; last-instar larvae of Culex pipiens pallens; 3.5 ppm in water; one day later; read-out: death rate
Method: Each of the formulations of Compounds of Present Invention (39), (63), (71), (72), (92), (93), (95), (106), (150), (171), (170), (181), (182), (183), (187), (188), (189), (190), (191), (192), (200), (201), (201), (234), (246), (290) and (299) obtained in Formulation Example 15 was diluted with water, so as to have a concentration of the active ingredient of 500 ppm, to prepare a test drug solution.
20 last-instar larvae of Culex pipiens pallens were released into a liquid to which 0.7 ml of the above test drug solution was added to 100 ml of ion-exchanged water (a concentration of the active ingredient of 3.5 ppm). One day later, the life and death of the Culex pipiens pallens was examined, and the death rate was calculated. The death rate was calculated by the following equation.
Death rate (%)=(Number of dead insects/Number of tested insects)×100

[5] = test system: Musca domestica; assay: Knockdown spray test on adult Musca domestica (Test Example 3); conditions: topical, 0.25 h, active ingredient 2.0% w/v, 0.5 ml sprayed, within 15 minutes, read-out: knockdown rate of the test insects within 15 minutes
In short: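 Ten adult house flies (5 male, 5 female) in a gauze-covered cup sprayed with 0.5 ml test solution from 30 cm at 0.9 kg/cm^2 inside a chamber, then removed. Knocked-down flies counted at 2, 5 and 15 min and expressed as % of insects tested.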

[6] = test system: Musca domestica; assay: Filter paper/sucrose bait death rate test on Musca domestica (Test Example 5); conditions: female imagoes of Musca domestica, 0.7 ml on filter paper, after 24 hours
In short: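 Ten female imagoes were confined in a sealed cup over a filter paper treated with 0.7 ml of test solution and 30 mg sucrose bait. Mortality was scored at 24 h and expressed as percent of tested insects killed.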

[7] = test system: Culex pipiens pallens; assay: Larvicidal test on Culex pipiens pallens, eight days (Test Example 7); conditions: 192 h; last-instar larvae of Culex pipiens pallens; 3.5 ppm in water; eight days later; read-out: death rate
In short: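 Twenty last-instar larvae placed in 100 ml ion-exchanged water containing test drug at 3.5 ppm active ingredient. Mortality scored after eight days; death rate = dead/tested × 100.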

[8] = test system: Spodoptera litura; assay: Foliar spray test on Spodoptera litura on cabbage (Test Example 11); conditions: 96 h, fourth instar larvae of Spodoptera litura on cabbage, 500 ppm spray 20 ml/cup, after 4 days, read-out: controlling value
In short: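 Cabbage is grown in cups to the third–fourth true leaf and sprayed at 20 ml/cup. Once the spray has dried, 10 fourth-instar larvae are released per cup and survivors are counted after 4 days. Controlling value (%) is corrected using pre-treatment and observation counts in treated and untreated sections.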

[9] = test system: Aphis gossypii; assay: Foliar spray test on Aphis gossypii on cucumber (Test Example 8); conditions: 144 h, 500 ppm spray 20 ml/cup, Sir days after spraying, read-out: controlling value
Method: On the other hand, cucumber was planted in a polyethylene cup and grown until the first true leaf was spread, and about 20 Aphis gossypii were allowed to parasitize the cucumber. One day after, the test spray solution was sprayed to the cucumber at a ratio of 20 ml/cup. Sir days after spraying, the number of Aphis gossypii was investigated, and the controlling value was calculated according to the following equation. Controlling value (%)={1−(Cb×Tai)/(Cai×Tb)}×100 In the equation, the symbols represent as follows. Cb: the number of insects in a non-treated section before treatment Cai: the number of insects in a non-treated section on observation Tb: the number of insects in a treated section before treatment Tai: the number of insects in a treated section on observation

[10] = test system: Aphis gossypii; assay: Soil treatment test on Aphis gossypii on cucumber (Test Example 9); conditions: 168 h, 5 ml treatment solution in contact with soil, seven days after putting insects, read-out: controlling value
Method: On the other hand, cucumber was planted in a polyethylene cup with a plurality of small holes on the bottom and grown until the first true leaf was spread. A cup in which cucumber was planted was put in a plastic cup with 5 ml of the test treatment solution, so that the soil in the cup was in contact with the treatment liquid. After five days, about 20Aphis gossypii were allowed to parasitize the cucumber, and seven days after putting insects, the number of Aphis gossypii was investigated, and the controlling value was calculated according to the following equation. Controlling value (%)={1−(Cb×Tai)/([…])}×100 In the equation, the symbols represent as follows. Cb: the number of insects in a non-treated section before treatment Cai: the number of insects in a non-treated section on observation Tb: the number of insects in a treated section before treatment Tai: the number of insects in a treated section on observation

[11] = test system: Blattella germanica; assay: Knockdown spray test on Blattella germanica, 2.0% w/v oil formulation (Test Example 1); conditions: topical, 0.25 h, active ingredient 2.0% w/v, 1.5 ml sprayed, within 15 minutes, read-out: knockdown rate of the test insects within 15 minutes
In short: (§1)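 Ten German cockroaches (5 males, 5 females) in a mesh-bottomed, butter-walled container were sprayed with 1.5 ml test solution from 60 cm at 0.42 kg/cm^2 inside a chamber.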

[12] = test system: Blattella germanica; assay: Knockdown spray test on Blattella germanica, 0.1% w/v oil formulation (Test Example 2); conditions: topical, 0.25 h, active ingredient 0.1% w/v, 1.5 ml sprayed, within 15 minutes, read-out: knockdown rate of the test insects within 15 minutes
In short: as §1

| Structure (SMILES) | pest or weed control at 0.1 % strength [1] [%] | pest or weed control at 500 ppm [2] [%] | pest or weed control at 500 ppm [3] [%] | pest or weed control at 3.5 ppm [4] [%] | pest or weed control at 2 % strength [5] [%] | pest or weed control at 500 ppm [6] [%] | pest or weed control at 3.5 ppm [7] [%] | pest or weed control at 500 ppm [8] [%] | pest or weed control at 500 ppm [9] [%] | pest or weed control at 500 ppm [10] [%] | pest or weed control at 2 % strength [11] [%] | pest or weed control at 0.1 % strength [12] [%] |
| --- | --- | --- | --- | --- | --- | --- | --- | --- | --- | --- | --- | --- |
| O=C(NCC1CCOC1)c1cc(CCCCCCCOc2ccc3ccccc3n2)on1 (centres unmarked) [(150), N-(tetrahydrofuran-3-ylmethyl)-5-[7-(2-quinolyloxy)heptyl]isoxazole-3-carboxamide] | ≥ 80 | 100 | ≥ 90 | ≥ 90 | ≥ 80 | ≥ 90 | ≥ 90 | – | – | – | – | – |
| O=C(NCC1CCOCC1)c1cc(COc2ccc(Cl)c(Cl)c2)on1 [(183)] | ≥ 80 | 100 | – | ≥ 90 | – | – | ≥ 90 | ≥ 80 | – | – | – | – |
| O=C(NCC1CCOC1)c1cc(C(F)c2ccccc2)on1 (centres unmarked) [(154), N-(tetrahydrofuran-3-ylmethyl)-5-(1-fluoro-1-phenylmethyl)isoxazole-3-carboxamide] | – | – | – | – | – | – | – | – | ≥ 90 | ≥ 90 | – | – |
| O=C(NCC1CCOC1)c1cc(COCC2CCCC2)on1 (centres unmarked) [(131), N-(tetrahydrofuran-3-ylmethyl)-5-cyclopentylmethoxymethylisoxazole-3-carboxamide] | ≥ 80 | – | – | – | ≥ 80 | – | – | – | ≥ 90 | – | ≥ 80 | – |
| O=C(NCC1CCOCC1)c1cc(COCc2cccc(SC(F)(F)F)c2)on1 [(81), N-(tetrahydropyran-4-ylmethyl)-5-(3-trifluoromethylthiobenzyloxymethyl)isoxazole-3-carboxamide] | ≥ 80 | – | ≥ 90 | – | – | – | – | ≥ 80 | ≥ 90 | – | – | – |
| O=C(NCC1CCOC1)c1cc(CCCCCCO)on1 (centres unmarked) [(144), N-(tetrahydrofuran-3-ylmethyl)-5-(6-hydroxyhexyl)isoxazole-3-carboxamide] | – | – | – | – | – | – | – | – | ≥ 90 | – | – | – |
| O=C(NCC1CCOC1)c1noc(COCc2ccccc2)c1C(F)F (centres unmarked) [(171), N-(tetrahydrofuran-3-ylmethyl)-(5-benzyloxymethyl-4-difluoromethyl)isoxazole-3-carboxamide] | ≥ 80 | 100 | ≥ 90 | ≥ 90 | – | – | ≥ 90 | ≥ 80 | – | – | – | – |
| O=C(NCC1CCOCC1)c1cc(COCc2cccc(C(F)(F)F)c2)on1 [(65)] | ≥ 80 | 100 | ≥ 90 | – | ≥ 80 | – | – | ≥ 80 | ≥ 90 | – | ≥ 80 | – |
| CC(OCc1ccccc1)c1cc(C(=O)NCC2CCOC2)no1 (centres unmarked) [(129), N-(tetrahydrofuran-3-ylmethyl)-5-[1-(benzyloxy)ethyl]isoxazole-3-carboxamide] | – | – | – | – | – | – | – | – | ≥ 90 | ≥ 90 | – | – |
| O=C(NCC1CCOC1)c1noc(COCc2ccccc2)c1CF (centres unmarked) [(170), N-(tetrahydrofuran-3-ylmethyl)-(5-benzyloxymethyl-4-fluoromethyl)isoxazole-3-carboxamide] | ≥ 80 | 100 | ≥ 90 | ≥ 90 | – | – | ≥ 90 | – | – | – | – | ≥ 80 |
| O=C(NCC1CCOC1)c1cc(CCCc2ccc3c(c2)OCO3)on1 (centres unmarked) [(234), N-(tetrahydrofuran-3-ylmethyl)-5-[3-(1,3-benzodioxolan-5-yl)propyl]isoxazole-3-carboxamide] | ≥ 80 | 100 | ≥ 90 | ≥ 90 | – | ≥ 90 | – | ≥ 80 | – | – | – | ≥ 80 |
| O=C(NCC1CCOC1)c1cc(COCC2Oc3ccccc3O2)on1 (centres unmarked) [(122), N-(tetrahydrofuran-3-ylmethyl)-5-(1,3-benzodioxolan-2-ylmethoxymethyl)isoxazole-3-carboxamide] | ≥ 80 | 100 | – | – | – | – | – | – | – | – | – | ≥ 80 |
| O=C(NCC1CCOC1)c1cc(COCc2ccc3c(c2)CCCC3)on1 (centres unmarked) [(119), N-(tetrahydrofuran-3-ylmethyl)-5-(5,6,7,8-tetrahydronaphthalen-2-ylmethoxymethyl)isoxazole-3-carboxamide] | ≥ 80 | – | ≥ 90 | – | ≥ 80 | – | ≥ 90 | – | ≥ 90 | – | ≥ 80 | – |
| O=C(NCC1CCS(=O)(=O)C1)c1cc(COCc2ccccc2)on1 (centres unmarked) [(39), N-(1,1-dioxotetrahydrothiophen-3-ylmethyl)-5-benzyloxymethylisoxazole-3-carboxamide] | – | 100 | ≥ 90 | ≥ 90 | – | – | ≥ 90 | – | – | – | – | – |
| O=C(NCC1CCOCC1)c1cc(COCc2ccc(OC(F)(F)F)cc2)on1 [(94), N-(tetrahydropyran-4-ylmethyl)-5-(4-trifluoromethoxybenzyloxymethyl)isoxazole-3-carboxamide] | ≥ 80 | – | ≥ 90 | – | – | – | – | – | ≥ 90 | – | – | ≥ 80 |
